# Measured values published in PubChem BioAssay (NCI).
#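 Each compound was tested at five concentrations against cells in 96-well plates for 48 hours. GI50 is the concentration that inhibits growth by half. TGI marks complete inhibition of growth.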 *1 amine or outer side, *2 acyl side, *3 side chain or, on linkers, in order; H or OH if unused. Where a SMILES comes first, the peptide text is derived from it. Bridges are numbered along the chain shown (N, C = ends). Roman numbers before positions name the chains, in order. [ ]: non-standard residue; d: D form. Actinocin(9to1) = Cc1c2oc3c(C)ccc(C(=O)[*:1])c3nc-2c(C(=O)[*:2])c(N)c1=O; NMeV = CN[CH](C(=O)O)C(C)C; Sar = CNCC(=O)O
# Columns and labels:
# Test in all cases: DTP human tumour cell line panel, 48 h
# UACC-257 melanoma = test system: UACC-257 melanoma
# SNB-19 CNS = test system: SNB-19 CNS
# MOLT-4 leukemia = test system: MOLT-4 leukemia
# SK-OV-3 ovarian = test system: SK-OV-3 ovarian
# COLO 205 colon = test system: COLO 205 colon
# HT29 colon = test system: HT29 colon
# MDA-MB-231 breast = test system: MDA-MB-231 breast
# SNB-75 CNS = test system: SNB-75 CNS
# NCI-H226 lung = test system: NCI-H226 lung
SMILES,TGI (UACC-257 melanoma) [µM],TGI (SNB-19 CNS) [µM],TGI (MOLT-4 leukemia) [µM],TGI (SK-OV-3 ovarian) [µM],TGI (COLO 205 colon) [µM],TGI (HT29 colon) [µM],TGI (MDA-MB-231 breast) [µM],TGI (SNB-75 CNS) [µM],TGI (NCI-H226 lung) [µM],GI50 (UACC-257 melanoma) [µM],GI50 (SNB-19 CNS) [µM],GI50 (NCI-H226 lung) [µM],GI50 (MOLT-4 leukemia) [µM],GI50 (SK-OV-3 ovarian) [µM],GI50 (COLO 205 colon) [µM],GI50 (HT29 colon) [nM],GI50 (MDA-MB-231 breast) [µM],GI50 (SNB-75 CNS) [µM]
O=C(CCCCCCCCC(=O)N1C(=O)CC(=O)N(c2cccc(Cl)c2)C1=S)N1C(=O)CC(=O)N(c2cccc(Cl)c2)C1=S,> 100,> 100,70.6,> 100,> 100,> 100,84.3,> 100,,,,,,,,,,
COc1ccc(-c2c(N)n(-c3cccc(C(=O)O)c3)c(=O)c3cc([N+](=O)[O-])ccc23)cc1,> 100,> 100,> 100,> 100,,> 100,,> 100,> 100,,,,,,,,,
CCOc1nc(-c2ccccc2)cc(-c2ccc(N3CCOCC3)cc2)c1C#N,> 100,> 100,> 100,,> 100,> 100,> 100,> 100,> 100,,,,,,,,,
C#CC(F)(F)[C@]1(O)CC[C@H]2[C@@H]3CCC4=CC(=O)CCC4=C3[C@@H](c3ccc(C(C)=O)cc3)C[C@@]21C,88.5,> 100,63.4,> 100,38.6,> 50.5,> 87.5,> 100,71.3,21.1,28.4,21.7,3.9,20.7,13.1,109,15.7,3.82
COc1ccc(N=N/C(=N/NC(=O)c2ccccc2)c2ccc(N(CCC#N)CCC#N)cc2C)cc1,> 100,> 100,> 100,> 100,> 100,55,> 100,> 100,> 100,,,,,,,,,
"Cc1c2oc3c(C)ccc(C(=O)NC4C(=O)NC(C(C)O)C(=O)N5CCCC5C(=O)N(C)CC(=O)N(C)C(C(C)C)C(=O)OC4C)c3nc-2c(C(=O)NC2C(=O)NC(C(C)O)C(=O)N3CCCC3C(=O)N(C)CC(=O)N(C)C(C(C)C)C(=O)OC2C)c(N)c1=O (stereo not drawn) (I: TTP[Sar][NMeV] / II: TTP[Sar][NMeV]; ester I:1-I:C, II:1-II:C; linker I:N-II:N via Actinocin(9to1); configuration not given here)",3.2,> 100,0.598,> 100,0.762,4.19,> 100,1.95,0.803,,,,,,,,,
Oc1ccc(SCc2cc(O)c(O)c(O)c2)cc1,> 100,> 100,> 100,> 100,36.9,48.1,> 100,> 100,52.1,,,,,,,,,
O=C1NC2(CCCCC2)C2CCCCCC12 (stereo not drawn),> 100,> 100,> 100,> 100,,> 100,,> 100,> 100,,,,,,,,,
CCOC(=O)CNC(=O)C(C)NC(=O)C(NC(=O)CC(c1ncc[nH]1)c1ncc[nH]1)C(C)CC (stereo not drawn),> 100,> 100,> 100,> 100,> 100,,> 100,> 100,,,,,,,,,,
COc1cccc(N(CN2CC=CC2=O)C(C)=O)c1,> 100,> 100,> 100,> 100,> 100,> 100,> 100,> 100,> 100,,,,,,,,,
Cc1cc(-c2nc3ccccc3s2)ccc1NC(=O)[C@H](C)N,33.2,28.7,37.8,28.5,26.7,28.7,32.6,26.1,13.4,,,,,,,,,
CSC1=C(C#N)C(=O)N(c2ccc(C)cc2)C(=S)C1C#N (stereo not drawn),> 100,> 100,> 100,> 100,> 100,> 100,> 100,> 100,> 100,,,,,,,,,
CCc1ccc2[nH]c(O)c(-c3[nH]c4ccccc4c3N=O)c2c1,28.5,31.6,> 100,12.1,23.2,25.5,40.7,28.9,62.5,,,,,,,,,
CC(=O)OC(OC(C)=O)n1cc(C=O)c2ccccc21,> 100,> 100,> 100,> 100,> 100,> 100,> 100,,> 100,,,,,,,,,
CC[C@H](C)[C@H]1NC(=O)[C@@H](NC(=O)[C@@H](CC(C)C)N(C)CC2CCCN2C(=O)C(C)=O)[C@@H](C)OC(=O)[C@H](Cc2ccc(OC)cc2)N(C)C(=O)C2CCCN2C(=O)[C@H](CC(C)C)NC(=O)[C@@H](C)C(=O)[C@H](C(C)C)OC(=O)C[C@@H]1O (stereo partly drawn),0.0128,0.0115,0.00608,0.0194,0.00879,0.0065,0.0251,0.0108,0.0809,,,,,,,,,
COC(=O)n1c(=O)n(-c2ccccc2)c(=O)n1C(=O)OC,> 100,> 100,> 100,> 100,> 100,> 100,> 100,> 100,> 100,,,,,,,,,
C=C(CC[C@@H](C(=O)O)[C@H]1[C@H](O)C[C@@]2(C)C3=CC[C@@H](C(=C)C)[C@](C)(CCC(=O)O)C3=CC[C@]12C)C(C)C,30.6,32.9,64.4,31.9,44.3,32.8,40.7,36.5,36.3,,,,,,,,,
COC(=O)c1cc(C#N)[nH]c1-c1ccc(C)s1,> 100,> 100,> 100,> 100,> 100,,> 100,> 100,> 100,,,,,,,,,
[N-]=[N+]=CC(=O)OCC1SCCCS1,> 100,> 100,> 100,> 100,> 100,> 100,> 100,,> 100,,,,,,,,,
C=CCSC1=N/C(=C\c2ccccc2)C(=O)N1CC=C,> 82.5,> 100,19.1,> 100,> 100,> 66.8,> 100,89.2,> 100,,,,,,,,,
